Among the targets are Carbonic anhydrase 9 (Homo sapiens, UniProt Q16790); Carbonic anhydrase 12 (Homo sapiens, UniProt O43570); Carbonic anhydrase 4 (Homo sapiens, UniProt P22748); Carbonic anhydrase 6 (Homo sapiens, UniProt P23280); Carbonic anhydrase 13 (Homo sapiens, UniProt Q8N1Q1); Carbonic anhydrase 7 (Homo sapiens, UniProt P43166); Carbonic anhydrase 14 (Homo sapiens, UniProt Q9ULX7); Carbonic anhydrase 3 (Homo sapiens, UniProt P07451); Carbonic anhydrase 2 (Homo sapiens, UniProt P00918); Carbonic anhydrase 1 (Homo sapiens, UniProt P00915).

Another assay addresses T1, Carbonic anhydrase 15 (Mus musculus, UniProt Q99N23).
T1 sequence (Q99N23 whole entry): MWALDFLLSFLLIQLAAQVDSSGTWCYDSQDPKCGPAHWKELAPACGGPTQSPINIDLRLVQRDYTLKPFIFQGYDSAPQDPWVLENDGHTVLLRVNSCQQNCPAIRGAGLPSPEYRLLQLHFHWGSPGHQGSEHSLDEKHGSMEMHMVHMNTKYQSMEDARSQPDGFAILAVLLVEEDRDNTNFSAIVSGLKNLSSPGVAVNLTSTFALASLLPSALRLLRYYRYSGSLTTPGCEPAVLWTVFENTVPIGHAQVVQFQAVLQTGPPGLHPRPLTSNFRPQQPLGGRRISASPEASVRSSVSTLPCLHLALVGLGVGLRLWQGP

Assay [1] addresses Carbonic anhydrase 5B, mitochondrial (Homo sapiens, UniProt Q9Y2D0).
Description: Inhibition of human carbonic anhydrase 5b after 15 mins by stopped flow CO2 hydration method
Assay [2] deals with Carbonic anhydrase 5A, mitochondrial (Homo sapiens, UniProt P35218).
Description: Inhibition of human carbonic anhydrase 5a after 15 mins by stopped flow CO2 hydration method

SMILES strings stand for the structures. A value given as a limit tells only on which side of the number the result lay.

Sequence of Carbonic anhydrase 6 (P23280 whole entry): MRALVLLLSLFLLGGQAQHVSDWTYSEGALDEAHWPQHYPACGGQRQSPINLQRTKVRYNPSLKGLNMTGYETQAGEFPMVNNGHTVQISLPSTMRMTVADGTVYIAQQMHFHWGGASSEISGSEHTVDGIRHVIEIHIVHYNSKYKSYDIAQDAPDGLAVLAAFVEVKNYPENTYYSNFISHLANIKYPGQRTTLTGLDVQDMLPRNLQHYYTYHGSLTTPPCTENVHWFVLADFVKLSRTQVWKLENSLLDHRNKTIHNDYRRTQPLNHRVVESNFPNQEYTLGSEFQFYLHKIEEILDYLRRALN
Sequence of Carbonic anhydrase 5B, mitochondrial (Q9Y2D0 whole entry): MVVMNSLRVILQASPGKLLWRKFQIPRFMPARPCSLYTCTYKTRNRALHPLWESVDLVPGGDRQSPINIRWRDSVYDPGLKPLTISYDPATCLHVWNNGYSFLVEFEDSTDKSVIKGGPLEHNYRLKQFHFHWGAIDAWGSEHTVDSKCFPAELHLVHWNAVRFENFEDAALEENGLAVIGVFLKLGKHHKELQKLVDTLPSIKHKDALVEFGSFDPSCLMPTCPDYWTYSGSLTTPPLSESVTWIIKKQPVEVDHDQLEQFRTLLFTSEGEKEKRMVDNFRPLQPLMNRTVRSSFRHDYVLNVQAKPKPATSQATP
Sequence of Carbonic anhydrase 14 (Q9ULX7 whole entry): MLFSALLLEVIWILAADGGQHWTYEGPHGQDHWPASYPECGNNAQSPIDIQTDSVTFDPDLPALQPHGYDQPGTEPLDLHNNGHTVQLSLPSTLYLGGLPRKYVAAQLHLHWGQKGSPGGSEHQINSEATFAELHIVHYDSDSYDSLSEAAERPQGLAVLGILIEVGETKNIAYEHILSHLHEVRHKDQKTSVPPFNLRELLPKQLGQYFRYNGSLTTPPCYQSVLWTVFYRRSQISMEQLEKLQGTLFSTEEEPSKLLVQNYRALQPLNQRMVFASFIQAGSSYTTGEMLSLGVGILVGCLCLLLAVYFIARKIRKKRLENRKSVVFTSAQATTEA
Sequence of Carbonic anhydrase 7 (P43166 whole entry): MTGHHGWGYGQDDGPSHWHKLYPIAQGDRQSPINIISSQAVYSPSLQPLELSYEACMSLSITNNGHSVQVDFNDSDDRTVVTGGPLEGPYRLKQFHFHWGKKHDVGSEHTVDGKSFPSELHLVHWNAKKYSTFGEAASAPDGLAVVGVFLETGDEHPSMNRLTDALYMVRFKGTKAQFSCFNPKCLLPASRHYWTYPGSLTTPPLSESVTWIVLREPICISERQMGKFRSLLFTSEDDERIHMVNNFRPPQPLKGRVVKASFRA
Sequence of Carbonic anhydrase 3 (P07451 whole entry): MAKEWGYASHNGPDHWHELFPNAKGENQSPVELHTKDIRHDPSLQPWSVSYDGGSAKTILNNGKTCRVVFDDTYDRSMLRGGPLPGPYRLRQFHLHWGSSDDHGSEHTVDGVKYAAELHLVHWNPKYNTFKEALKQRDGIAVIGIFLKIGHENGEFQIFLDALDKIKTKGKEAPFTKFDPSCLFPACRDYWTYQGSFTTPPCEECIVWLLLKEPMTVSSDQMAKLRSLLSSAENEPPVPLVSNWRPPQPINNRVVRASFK
Sequence of Carbonic anhydrase 4 (P22748 whole entry): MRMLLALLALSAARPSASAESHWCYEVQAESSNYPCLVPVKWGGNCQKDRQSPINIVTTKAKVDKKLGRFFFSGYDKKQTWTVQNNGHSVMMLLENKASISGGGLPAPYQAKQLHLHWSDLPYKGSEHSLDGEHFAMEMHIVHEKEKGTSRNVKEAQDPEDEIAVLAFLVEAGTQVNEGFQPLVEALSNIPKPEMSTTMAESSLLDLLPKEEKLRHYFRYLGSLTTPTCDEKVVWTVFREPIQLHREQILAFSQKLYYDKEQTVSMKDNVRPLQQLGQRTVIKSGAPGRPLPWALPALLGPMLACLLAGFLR
Sequence of Carbonic anhydrase 13 (Q8N1Q1 whole entry): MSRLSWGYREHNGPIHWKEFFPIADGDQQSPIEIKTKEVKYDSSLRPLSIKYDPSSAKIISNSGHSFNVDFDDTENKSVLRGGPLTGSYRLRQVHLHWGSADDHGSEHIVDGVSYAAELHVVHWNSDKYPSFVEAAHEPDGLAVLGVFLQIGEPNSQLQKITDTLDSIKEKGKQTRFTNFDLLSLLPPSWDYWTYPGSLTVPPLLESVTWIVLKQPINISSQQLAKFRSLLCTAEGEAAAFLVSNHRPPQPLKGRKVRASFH
Sequence of Carbonic anhydrase 1 (P00915 whole entry): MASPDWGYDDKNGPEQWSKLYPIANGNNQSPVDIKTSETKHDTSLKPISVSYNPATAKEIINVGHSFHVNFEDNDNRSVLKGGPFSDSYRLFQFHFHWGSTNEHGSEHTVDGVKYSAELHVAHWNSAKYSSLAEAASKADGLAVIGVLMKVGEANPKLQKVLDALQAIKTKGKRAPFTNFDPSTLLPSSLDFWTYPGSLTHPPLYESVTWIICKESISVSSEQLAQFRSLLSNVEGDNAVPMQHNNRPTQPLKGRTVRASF
Sequence of Carbonic anhydrase 5A, mitochondrial (P35218 whole entry): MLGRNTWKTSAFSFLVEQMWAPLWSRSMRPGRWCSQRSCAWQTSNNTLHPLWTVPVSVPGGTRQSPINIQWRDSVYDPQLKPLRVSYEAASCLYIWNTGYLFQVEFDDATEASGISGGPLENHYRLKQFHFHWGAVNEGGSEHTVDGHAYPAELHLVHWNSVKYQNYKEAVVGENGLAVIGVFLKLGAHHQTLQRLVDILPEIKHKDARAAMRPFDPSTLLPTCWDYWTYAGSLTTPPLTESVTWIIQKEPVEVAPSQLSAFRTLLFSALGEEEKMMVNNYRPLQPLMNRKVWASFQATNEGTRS
Sequence of Carbonic anhydrase 12 (O43570 whole entry): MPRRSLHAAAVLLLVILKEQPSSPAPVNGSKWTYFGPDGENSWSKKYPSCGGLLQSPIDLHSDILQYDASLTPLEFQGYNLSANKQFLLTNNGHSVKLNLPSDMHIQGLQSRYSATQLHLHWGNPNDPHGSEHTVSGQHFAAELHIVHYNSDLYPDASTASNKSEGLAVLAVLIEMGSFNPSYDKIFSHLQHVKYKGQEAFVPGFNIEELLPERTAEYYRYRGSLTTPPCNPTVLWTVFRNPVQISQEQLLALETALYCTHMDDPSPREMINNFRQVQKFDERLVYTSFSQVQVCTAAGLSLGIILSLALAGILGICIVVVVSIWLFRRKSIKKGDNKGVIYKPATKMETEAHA
Description for Carbonic anhydrase 12: Inhibition of human carbonic anhydrase 12 after 15 mins by stopped flow CO2 hydration method
Description for Carbonic anhydrase 13: Inhibition of human carbonic anhydrase 13 after 15 mins by stopped flow CO2 hydration method
Description for Carbonic anhydrase 14: Inhibition of human carbonic anhydrase 14 after 15 mins by stopped flow CO2 hydration method
Description for Carbonic anhydrase 15: Inhibition of mouse carbonic anhydrase 15 after 15 mins by stopped flow CO2 hydration method
Description for Carbonic anhydrase 2: Inhibition of human carbonic anhydrase 2 after 15 mins by stopped flow CO2 hydration method
Description for Carbonic anhydrase 3: Inhibition of human carbonic anhydrase 3 after 15 mins by stopped flow CO2 hydration method
Description for Carbonic anhydrase 4: Inhibition of human carbonic anhydrase 4 after 15 mins by stopped flow CO2 hydration method
Description for Carbonic anhydrase 6: Inhibition of human carbonic anhydrase 6 after 15 mins by stopped flow CO2 hydration method
Description for Carbonic anhydrase 7: Inhibition of human carbonic anhydrase 7 after 15 mins by stopped flow CO2 hydration method
Description for Carbonic anhydrase 9: Inhibition of human carbonic anhydrase 9 after 15 mins by stopped flow CO2 hydration method

As usually defined, the Ki is the dissociation constant of the complex between target and ligand, obtained from inhibition or displacement. A higher Ki goes with weaker binding. Regarding `COc1cc(/C=C/C(=O)CC(=O)/C=C/c2ccc(O)c(OC)c2)ccc1O` [CURCUMIN], the Ki was 4.05 µM on Carbonic anhydrase 9; 3.48 µM on Carbonic anhydrase 12; 4.97 µM at Carbonic anhydrase 4; 5.09 µM at Carbonic anhydrase 15; 9.46 µM in assay [1]; 9.94 µM on Carbonic anhydrase 6. Also, the Ki was 6.85 µM at Carbonic anhydrase 13; 9.3 µM on Carbonic anhydrase 7; 11.7 µM on Carbonic anhydrase 14; 10.2 µM in assay [2]; 11.3 µM on Carbonic anhydrase 3.

Consider `Oc1cc(O)c2c(c1)O[C@H](c1ccc(O)c(O)c1)[C@@H](O)C2` [CATECHIN], for which the Ki on Carbonic anhydrase 9 was determined as 5.03 µM; on Carbonic anhydrase 12, 4.72 µM; at Carbonic anhydrase 2, 1.84 µM; on Carbonic anhydrase 4, 4.9 µM; on Carbonic anhydrase 15, 7.68 µM; in assay [1], 4.02 µM. In addition, the Ki worked out at 4.91 µM on Carbonic anhydrase 6; 10.5 µM at Carbonic anhydrase 13; 0.45 µM on Carbonic anhydrase 7; 11.5 µM at Carbonic anhydrase 14; 4.21 µM in assay [2]; 2.42 µM at Carbonic anhydrase 1. At Carbonic anhydrase 3, this molecule yielded a Ki of 3.58 µM.

As to `Oc1ccc(/C=C/c2cc(O)cc(O)c2)cc1` [RESVERATROL], the inhibition constant (Ki) is 0.81 µM on Carbonic anhydrase 9; 0.95 µM at Carbonic anhydrase 12; 2.77 µM at Carbonic anhydrase 2; 4.47 µM on Carbonic anhydrase 4; 9.36 µM at Carbonic anhydrase 15; 4.64 µM in assay [1]. Further, the Ki was found to be 8.07 µM at Carbonic anhydrase 6; 4.09 µM on Carbonic anhydrase 13; 4.35 µM on Carbonic anhydrase 7; 0.83 µM on Carbonic anhydrase 14; 4.75 µM in assay [2]; 2.21 µM at Carbonic anhydrase 1. At Carbonic anhydrase 3, this molecule yielded a Ki of 9.09 µM.

`Oc1ccccc1` [PHENOL] yielded a Ki on Carbonic anhydrase 13 of 697 µM.

As for `CC(CCc1ccc(O)cc1)NCCc1ccc(O)c(O)c1` (centres undefined) [DOBUTAMINE], the Ki on Carbonic anhydrase 9 worked out at 9.82 µM; on Carbonic anhydrase 12, 4.35 µM; at Carbonic anhydrase 2, 0.48 µM; at Carbonic anhydrase 4, 8.98 µM; at Carbonic anhydrase 15, 0.39 µM; in assay [1] it was 0.89 µM. For the same molecule, the Ki on Carbonic anhydrase 6 is 9.47 µM; on Carbonic anhydrase 13, 9.53 µM; on Carbonic anhydrase 7, 4.3 µM; on Carbonic anhydrase 14, 12 µM; in assay [2], 0.73 µM; at Carbonic anhydrase 1, 1.92 µM. Also, the Ki at Carbonic anhydrase 3 was 7.4 µM.

Turning to `O=C(O)/C=C/c1ccccc1O` [O-COUMARIC ACID], the Ki at Carbonic anhydrase 9 is greater than 1000 µM; at Carbonic anhydrase 12, greater than 1000 µM; at Carbonic anhydrase 2, 9.2 µM; on Carbonic anhydrase 4, 62.3 µM; on Carbonic anhydrase 15, greater than 1000 µM; in assay [1] it was 578 µM. Further, the Ki on Carbonic anhydrase 6 was greater than 1000 µM; on Carbonic anhydrase 13, greater than 1000 µM; on Carbonic anhydrase 7, greater than 1000 µM; on Carbonic anhydrase 14, greater than 1000 µM; in assay [2], greater than 1000 µM; on Carbonic anhydrase 1, 3.1 µM. The Ki at Carbonic anhydrase 3 was greater than 1000 µM.

Source of the values: ChEMBL document CHEMBL1221287 (Bioorg Med Chem Lett, 2010).
